In DBAASP:
In brackets after ≈: the same amount, converted by molar mass. One block for each compound: values may come before it.

Key:
Test in all cases: ≥ marks a high value that may be exact or a test limit, other limits are often not marked, values filed in µg/mL are converted to µM
[1] = tested on: Escherichia coli ATCC 25922
[2] = tested on: Pseudomonas aeruginosa ATCC 27853
[3] = tested on: Staphylococcus aureus ATCC 29313
[4] = tested on: Xanthomonas axonopodis pv. glycines ISBF 327
[5] = tested on: Erwinia amylovora PMV 6076
[6] = tested on: Pseudomonas syringae pv. syringae EPS 94
[7] = tested on: Xanthomonas campestris pv. Vesicatoria 2133-2
[8] = tested on: Staphylococcus aureus ATCC 25923
[9] = tested on: Staphylococcus aureus ATCC 33591
[10] = tested on: Staphylococcus epidermidis ATCC 35984
Aspergillus fumigatus = tested on: Aspergillus fumigatus
Aspergillus niger = tested on: Aspergillus niger
[11] = tested on: Bacillus cereus PTCC 1435
[12] = tested on: Bacillus subtilis PTCC 4533
Candida albicans = tested on: Candida albicans
[13] = tested on: Escherichia coli PTCC 2433
[14] = tested on: Klebsiella pneumoniae PTCC 4231
[15] = tested on: Leuconostoc mesenteroides PTCC 1445
[16] = tested on: Pseudomonas aeruginosa PTCC 2834

MIC [1]: 10 µM (≈ 29.8 µg/mL)
MIC [2]: 20 µM (≈ 59.7 µg/mL)
MIC [4]: 1 µM (≈ 2.98 µg/mL)
Compound: CC[C@H](C)[C@H](NC(=O)[C@H](C)NC(=O)[C@H](C)NC(=O)[C@H](C)NC(=O)[C@H](C)NC(=O)[C@H](C)NC(=O)[C@H](C)NC(=O)[C@H](C)N)C(=O)N[C@@H](CCCCN)C(=O)N[C@@H](CCSC)C(=O)N[C@@H](CC(C)C)C(=O)N[C@@H](CCSC)C(=O)N[C@@H](CC(=O)O)C(=O)N[C@@H](CC(C)C)C(=O)N[C@H](C(=O)N[C@@H](CC(N)=O)C(=O)N[C@@H](CCC(=O)O)C(=O)N[C@@H](CCCN=C(N)N)C(=O)N[C@H](C(=O)N[C@@H](CCSC)C(=O)N[C@@H](C)C(=O)N[C@@H](CC(C)C)C(=O)N[C@@H](CC(N)=O)C(=O)N[C@@H](CCCCN)C(=O)N[C@@H](CCCCN)C(=O)N[C@@H](C)C(=O)N[C@@H](CCCCN)C(=O)N[C@@H](CCCCN)C(N)=O)[C@@H](C)CC)C(C)C [AAAAAAAIKMLMDLVNERIMALNKKAKK]
MIC [3]: 20 µM (≈ 59.7 µg/mL)

MIC [5]: 14.1 µM (≈ 45 µg/mL)
MIC [6]: 8.66 µM (≈ 27.5 µg/mL)
MIC [7]: 14.1 µM (≈ 45 µg/mL)
Compound: CC[C@H](C)[C@H](NC(=O)[C@H](CCCCN)NC(=O)[C@H](CCCCN)NC(=O)[C@H](Cc1ccccc1)NC(=O)[C@H](CC(C)C)NC(=O)[C@H](CCCCN)NC(=O)[C@H](CCCCN)NC(=O)[C@H](C)NC(=O)[C@@H]1CCCN1C(=O)CNC(=O)[C@H](C)NC(=O)[C@H](CC(C)C)NC(=O)[C@H](Cc1ccc(O)cc1)NC(=O)[C@H](CCCCN)NC(=O)[C@H](CC(C)C)NC(=O)[C@@H](NC(=O)[C@H](CCCCN)NC(=O)[C@H](CCCCN)NC(=O)[C@H](Cc1ccccc1)NC(=O)[C@H](CC(C)C)NC(=O)[C@H](CCCCN)NC(=O)[C@H](CCCCN)NC(=O)CN)[C@@H](C)CC)C(=O)N[C@@H](CC(C)C)C(=O)N[C@@H](CCCCN)C(=O)N[C@@H](Cc1ccc(O)cc1)C(=O)N[C@@H](CC(C)C)C(=O)O [GKKLFKKILKYLAGPAKKLFKKILKYL]

MIC [2]: 16.1 µM (≈ 22.6 µg/mL)
MIC [8]: 182 µM (≈ 256 µg/mL)
MIC [9]: ≥ 182 µM
MIC [10]: ≥ 64.3 µM
Compound: CC[C@H](C)[C@H](NC(=O)[C@H](CCCCN)NC(=O)[C@@H](NC(=O)[C@H](Cc1ccccc1)NC(=O)[C@H](C)NC(=O)[C@H](CCCCN)NC(=O)CNC(=O)[C@H](Cc1ccccc1)NC(=O)[C@H](CCCCN)NC(=O)[C@@H](N)CCCCN)C(C)C)C(=O)N[C@@H](CC(C)C)C(=O)N[C@@H](CCCCN)C(N)=O [KKFGKAFVKILK]

MIC (Aspergillus fumigatus): 11.9 µM (≈ 19.3 µg/mL)
MIC (Aspergillus niger): 15.2 µM (≈ 24.6 µg/mL)
MIC [11]: 9.33 µM (≈ 15.1 µg/mL)
MIC [12]: 10.9 µM (≈ 17.6 µg/mL)
MIC (Candida albicans): 12.6 µM (≈ 20.4 µg/mL)
MIC [13]: 17.5 µM (≈ 28.3 µg/mL)
MIC [14]: 16.5 µM (≈ 26.7 µg/mL)
MIC [15]: 12.2 µM (≈ 19.8 µg/mL)
MIC [16]: 15 µM (≈ 24.2 µg/mL)
Compound: CC[C@H](C)[C@H](NC(=O)[C@H](CO)NC(=O)[C@H](CCCCN)NC(=O)[C@H](CC(C)C)NC(=O)[C@H](CCCN=C(N)N)NC(=O)[C@@H](N)CC(C)C)C(=O)N[C@H](C(=O)N[C@@H](CO)C(=O)N[C@@H](Cc1ccc(O)cc1)C(=O)N[C@@H](C)C(=O)N[C@@H](CCCCN)C(=O)N[C@@H](CCCCN)C(=O)N[C@H](C(=O)N[C@@H](CC(C)C)C(=O)O)C(C)C)C(C)C [LRLKSIVSYAKKVL]
